Common to all, as to format: biochemical
For one assay, the target named is T1, fms (Homo sapiens, UniProt P07333).
T1 sequence (P07333 582-910 limits assumed): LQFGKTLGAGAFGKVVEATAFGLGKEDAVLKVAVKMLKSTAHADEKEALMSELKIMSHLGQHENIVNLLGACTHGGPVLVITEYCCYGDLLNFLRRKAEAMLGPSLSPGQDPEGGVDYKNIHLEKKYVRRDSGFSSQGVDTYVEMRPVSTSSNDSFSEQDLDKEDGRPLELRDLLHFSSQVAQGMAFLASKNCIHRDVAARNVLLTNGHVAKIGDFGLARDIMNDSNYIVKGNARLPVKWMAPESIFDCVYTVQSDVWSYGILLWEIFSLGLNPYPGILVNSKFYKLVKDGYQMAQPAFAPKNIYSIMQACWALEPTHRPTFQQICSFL
In words: fms kinase assay (ELISA or Alphascreen). The note with it: read-out: fms inhibition of enzyme activity. The method, boiled down: (§1)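 PTK domain ~1.5 μg; 50 mM HEPES pH 7.5, 10 mM MgCl2, 150 mM NaCl; ATP 10 μM-1 mM; biotinylated peptide 5 μM final. Read-out: avidin-capture ELISA with PY20 or Alphascreen pTyr acceptor/streptavidin donor beads.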
On the technique in general: An ELISA detects its analyte on a solid surface through an enzyme-linked reagent.

The target of another assay is fes (Homo sapiens, UniProt P07332). Kind of assay: fes kinase assay (ELISA or Alphascreen). The note with it: read-out: fes inhibition of enzyme activity. In outline:
as §1

Another assay deals with T2, Zap70 (Homo sapiens, UniProt P43403).
T2 sequence (P43403 338-600 limits assumed): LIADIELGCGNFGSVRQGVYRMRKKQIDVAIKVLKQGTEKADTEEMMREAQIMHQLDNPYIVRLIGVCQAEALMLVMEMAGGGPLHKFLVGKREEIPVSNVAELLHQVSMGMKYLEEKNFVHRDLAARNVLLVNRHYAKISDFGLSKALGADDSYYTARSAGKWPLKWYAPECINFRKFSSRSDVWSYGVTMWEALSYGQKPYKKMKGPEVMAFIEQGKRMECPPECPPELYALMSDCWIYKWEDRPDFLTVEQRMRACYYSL
In words: Zap70 kinase assay (ELISA or Alphascreen). The note with it: read-out: Zap70 inhibition of enzyme activity. The method, boiled down:
as §1

A further assay deals with hck (Homo sapiens, UniProt P08631). Kind of assay: hck kinase assay (ELISA or Alphascreen). The following applies: read-out: hck inhibition of enzyme activity. In outline: as §1
A further assay deals with T3, human JAK2 (Homo sapiens, UniProt O60674).
T3 construct: The kinase domain of human JAK2 was amplified from U937mRNA; His tag (from the pFastBac HTc vector) (N); made in house; host or cells: baculovirus; Sf9 for virus, High Five insect cells for production
Kind of assay: JAK2 kinase assay (ELISA or Alphascreen). The following applies: read-out: Jak2 inhibition of enzyme activity. The method, boiled down:
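His-tagged human JAK2 kinase domain from baculovirus-infected insect cells, ~1.5 μg per assay, in 50 mM HEPES pH 7.5, 10 mM MgCl2, 150 mM NaCl, with 10 μM–1 mM ATP and 5 μM biotinylated peptide substrate. Phosphotyrosine detected by PY20 ELISA or AlphaScreen.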

The next assay addresses T4, abl (Homo sapiens, UniProt P00519).
T4 sequence (P00519 242-493 limits assumed): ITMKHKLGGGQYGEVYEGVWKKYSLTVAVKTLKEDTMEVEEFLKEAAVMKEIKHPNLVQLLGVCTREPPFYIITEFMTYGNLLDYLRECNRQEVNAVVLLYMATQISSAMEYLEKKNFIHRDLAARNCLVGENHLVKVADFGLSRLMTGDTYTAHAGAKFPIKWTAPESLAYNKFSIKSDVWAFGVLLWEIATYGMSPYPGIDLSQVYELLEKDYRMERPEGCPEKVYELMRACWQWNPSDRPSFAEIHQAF
In words: abl kinase assay (ELISA or Alphascreen). The note with it: read-out: abl inhibition of enzyme activity. In outline:
as §1

The target in another assay is T5, human JAK3 (Homo sapiens, UniProt P52333).
T5 construct: The kinase domain of human JAK3 was amplified from U937mRNA; His tag (from the pFastBac HTb vector) (N); made in house; host or cells: baculovirus; Sf9 for virus, High Five insect cells for production
Kind of assay: JAK3 kinase assay (ELISA or Alphascreen). The note with it: read-out: Jak3 inhibition of enzyme activity. In outline: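 Read-out: anti-phosphotyrosine detection of a 5 μM biotin-peptide substrate, via PY20-peroxidase ELISA or Alphascreen beads. Enzyme was nickel-purified recombinant JAK3 kinase domain (~1.5 μg), with ATP at 10 μM-1 mM, pH 7.5 HEPES/MgCl2/NaCl.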

The results in this text go back to patent US8030336B2, “Nicotinamide-based kinase inhibitors” (YM Biosciences Australia Pty Ltd, priority 2002, dated 2011).

T5 sequence (P52333 822-1111 limits assumed): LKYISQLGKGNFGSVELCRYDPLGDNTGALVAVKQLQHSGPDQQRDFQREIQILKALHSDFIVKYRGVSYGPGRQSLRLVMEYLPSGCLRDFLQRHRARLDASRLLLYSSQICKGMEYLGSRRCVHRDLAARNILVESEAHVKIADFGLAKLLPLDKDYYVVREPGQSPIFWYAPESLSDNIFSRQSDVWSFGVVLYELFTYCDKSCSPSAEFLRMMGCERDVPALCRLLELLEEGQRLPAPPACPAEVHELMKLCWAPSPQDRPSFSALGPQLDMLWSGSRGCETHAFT
T3 sequence (O60674 849-1124 limits assumed): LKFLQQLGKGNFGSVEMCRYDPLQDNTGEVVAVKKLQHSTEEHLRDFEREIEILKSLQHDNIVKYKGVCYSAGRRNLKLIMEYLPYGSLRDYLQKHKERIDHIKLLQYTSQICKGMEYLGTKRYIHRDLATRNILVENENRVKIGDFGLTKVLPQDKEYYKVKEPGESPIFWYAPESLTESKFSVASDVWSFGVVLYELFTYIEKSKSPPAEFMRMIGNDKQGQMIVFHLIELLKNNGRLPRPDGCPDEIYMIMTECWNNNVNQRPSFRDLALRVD
Sequence of fes (P07332 561-822 limits assumed, species assumed): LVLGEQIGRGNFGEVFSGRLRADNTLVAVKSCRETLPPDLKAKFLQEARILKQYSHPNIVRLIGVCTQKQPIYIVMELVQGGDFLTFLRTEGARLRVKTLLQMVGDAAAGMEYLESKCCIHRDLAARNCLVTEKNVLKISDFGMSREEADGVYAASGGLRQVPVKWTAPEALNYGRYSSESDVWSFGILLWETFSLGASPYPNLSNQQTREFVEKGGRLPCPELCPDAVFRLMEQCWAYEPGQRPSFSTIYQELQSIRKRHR
Sequence of hck (P08631 262-515 limits assumed, species assumed): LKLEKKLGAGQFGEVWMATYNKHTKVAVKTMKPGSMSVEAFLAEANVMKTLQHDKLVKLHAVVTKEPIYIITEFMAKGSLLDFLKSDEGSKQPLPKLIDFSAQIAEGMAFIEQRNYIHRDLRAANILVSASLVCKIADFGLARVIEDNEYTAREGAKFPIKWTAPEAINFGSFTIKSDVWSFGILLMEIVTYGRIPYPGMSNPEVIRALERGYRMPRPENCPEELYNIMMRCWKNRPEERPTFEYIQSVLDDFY

On to `O=C(NCc1ccco1)c1cncc(-c2ccc(O)cc2)c1`, for which the inhibition at 10 µM at fms was at least 50%; at fes, under 50%; at Zap70 it was under 50%; at hck, under 50%; on human JAK2, under 50%; on abl, under 50%. Besides, at human JAK3, the inhibition at 10 µM is under 50%.

In the case of `COc1cc(CNC(=O)c2cncc(-c3cc(OC)c(OC)c(OC)c3Cl)c2)cc(OC)c1`, the inhibition at 10 µM at fms is under 50%; on fes, under 50%; on Zap70, at least 50%; at hck, under 50%; at human JAK2, at least 50%; at abl, under 50%. Also, the inhibition at 10 µM on human JAK3 is under 50%.

Turning to `Cc1cc(-c2cncc(C(=O)NC(C)C)c2)cc(C)c1O`, the inhibition at 10 µM at fms is under 50%; on fes, under 50%; at Zap70, at least 50%; on hck, under 50%; at human JAK2, under 50%; at abl it was under 50%. Also, the inhibition at 10 µM on human JAK3 is under 50%.

With `COc1cc(-c2cncc(C(=O)Nc3cc(F)ccc3C)c2)c(Cl)c(OC)c1OC`, the inhibition at 10 µM on fms was at least 50%; at fes, under 50%; at Zap70 it was under 50%; at hck, at least 50%; at human JAK2 it was under 50%; at abl, under 50%. Besides, the inhibition at 10 µM on human JAK3 was under 50%.

With `COc1ccc(NC(=O)c2cncc(-c3cccnc3)c2)c(OC)c1`, the inhibition at 10 µM at fms is at least 50%; on fes, under 50%; on Zap70 it was under 50%; at hck it was under 50%; at human JAK2, at least 50%; at abl it was under 50%. The inhibition at 10 µM on human JAK3 was at least 50%.

As to `COc1cccc(-c2cncc(C(=O)N[C@@H](C)c3cccc(OC)c3)c2)c1`, the inhibition at 10 µM on fms was under 50%; on fes it was under 50%; on Zap70 it was at least 50%; on hck, under 50%; at human JAK2, under 50%; at abl, under 50%. The inhibition at 10 µM on human JAK3 was under 50%.

Turning to `Cc1cc(-c2cncc(C(=O)NCc3ccco3)c2)cc(C)c1O`, the inhibition at 10 µM was under 50% on fms; under 50% at fes; at least 50% at Zap70; under 50% at hck; under 50% on human JAK2; under 50% on abl. Besides, the inhibition at 10 µM on human JAK3 is under 50%.

In the case of `Cc1cc(-c2cncc(C(=O)NCc3ccncc3)c2)cc(C)c1O`, the inhibition at 10 µM was at least 50% at fms; under 50% at fes; under 50% on Zap70; under 50% at hck; under 50% on human JAK2; under 50% at abl. In addition, the inhibition at 10 µM on human JAK3 is under 50%.

On to `O=C(Nc1ccc(N2CCOCC2)cc1)c1cncc(-c2cccs2)c1`, for which the inhibition at 10 µM was under 50% on fms; at least 50% at fes; under 50% at Zap70; under 50% on hck; under 50% at human JAK2; under 50% on abl. In addition, at human JAK3, the inhibition at 10 µM was under 50%.

Regarding `COc1cc(-c2cncc(C(=O)Nc3ccccc3C)c2)c(Cl)c(OC)c1OC`, the inhibition at 10 µM on fms was at least 50%; on fes, under 50%; at Zap70, under 50%; on hck, at least 50%; on human JAK2, under 50%; on abl, under 50%. The inhibition at 10 µM at human JAK3 is under 50%.

Take `COc1cccc(-c2cncc(C(=O)NCc3ccc(C)cc3)c2)c1`: the inhibition at 10 µM was under 50% on fms; under 50% at fes; at least 50% at Zap70; under 50% at hck; under 50% at human JAK2; under 50% at abl. For the same compound, the inhibition at 10 µM at human JAK3 is under 50%.

For the compound `Cc1ccc(F)cc1NC(=O)c1cncc(-c2cccs2)c1`, the inhibition at 10 µM is at least 50% on fms; under 50% on fes; under 50% on Zap70; at least 50% on hck; under 50% on human JAK2; under 50% on abl. Moreover, at human JAK3, the inhibition at 10 µM was under 50%.

For the compound `COc1cccc(-c2cncc(C(=O)Nc3cc(C)ccc3C)c2)c1`, the inhibition at 10 µM at fms is under 50%; on fes it was under 50%; on Zap70, at least 50%; on hck, at least 50%; on human JAK2 it was under 50%; at abl, under 50%. The inhibition at 10 µM at human JAK3 is under 50%.

For `COc1cccc(-c2cncc(C(=O)NCCc3ccccc3)c2)c1`, the inhibition at 10 µM on fms is under 50%; on fes, under 50%; on Zap70, at least 50%; on hck, under 50%; on human JAK2, under 50%; at abl it was under 50%. Moreover, the inhibition at 10 µM on human JAK3 is under 50%.

On to `COc1cc(-c2cncc(C(=O)OC(C)(C)C)c2)ccc1O`, for which the inhibition at 10 µM is at least 50% at fms; under 50% on fes; under 50% at Zap70; under 50% at hck; under 50% at human JAK2; under 50% on abl. In addition, the inhibition at 10 µM at human JAK3 was under 50%.

As to `COc1cccc([C@H](C)NC(=O)c2cncc(-c3ccc(F)cc3)c2)c1`, the inhibition at 10 µM at fms was under 50%; on fes, under 50%; at Zap70, at least 50%; at hck, under 50%; on human JAK2, under 50%; at abl it was under 50%. In addition, the inhibition at 10 µM at human JAK3 was under 50%.

For the compound `COc1cc(-c2cncc(C(=O)Nc3ccc(F)cc3C)c2)ccc1O`, the inhibition at 10 µM at fms is under 50%; on fes it was under 50%; at Zap70, under 50%; on hck, at least 50%; at human JAK2 it was under 50%; on abl, at least 50%. The inhibition at 10 µM at human JAK3 is under 50%.

The term inhibition denotes the drop in the measured response relative to a control, in per cent.
